From PubChem BioAssay (NCI)
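Protocol summary: plate cells (96-well), add compound at 5 concentrations, incubate 48 h, interpolate endpoints linearly. The concentration for full growth arrest is given as TGI.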

Experiments:
Test in all cases: growth of human tumour cells (NCI), 48 h
A498 renal = tested on: A498 renal
A549 NSCLC = tested on: A549 NSCLC
ACHN renal = tested on: ACHN renal
BT-549 breast = tested on: BT-549 breast
CAKI-1 renal = tested on: CAKI-1 renal
CCRF-CEM leukemia = tested on: CCRF-CEM leukemia
COLO 205 colon = tested on: COLO 205 colon
DU-145 prostate = tested on: DU-145 prostate
EKVX NSCLC = tested on: EKVX NSCLC
HCC-2998 colon = tested on: HCC-2998 colon
HCT-15 colon = tested on: HCT-15 colon
HL-60(TB) leukemia = tested on: HL-60(TB) leukemia
HOP-92 NSCLC = tested on: HOP-92 NSCLC
HT29 colon = tested on: HT29 colon
IGROV1 ovarian = tested on: IGROV1 ovarian
K-562 leukemia = tested on: K-562 leukemia
KM12 colon = tested on: KM12 colon
LOX IMVI melanoma = tested on: LOX IMVI melanoma
MALME-3M melanoma = tested on: MALME-3M melanoma
MCF7 breast = tested on: MCF7 breast
MDA-MB-435 = tested on: MDA-MB-435
MDA-N = tested on: MDA-N
MOLT-4 leukemia = tested on: MOLT-4 leukemia
NCI-H226 lung = tested on: NCI-H226 lung
NCI-H23 lung = tested on: NCI-H23 lung
NCI-H460 lung = tested on: NCI-H460 lung
NCI-H522 lung = tested on: NCI-H522 lung
NCI/ADR-RES ovarian = tested on: NCI/ADR-RES ovarian
OVCAR-3 ovarian = tested on: OVCAR-3 ovarian
OVCAR-4 ovarian = tested on: OVCAR-4 ovarian
OVCAR-5 ovarian = tested on: OVCAR-5 ovarian
OVCAR-8 ovarian = tested on: OVCAR-8 ovarian
PC-3 prostate = tested on: PC-3 prostate
RPMI-8226 leukemia = tested on: RPMI-8226 leukemia
RXF 393 renal = tested on: RXF 393 renal
SF-268 CNS = tested on: SF-268 CNS
SF-295 CNS = tested on: SF-295 CNS
SF-539 CNS = tested on: SF-539 CNS
SK-MEL-2 melanoma = tested on: SK-MEL-2 melanoma
SK-MEL-28 melanoma = tested on: SK-MEL-28 melanoma
SK-MEL-5 melanoma = tested on: SK-MEL-5 melanoma
SK-OV-3 ovarian = tested on: SK-OV-3 ovarian
SN12C renal = tested on: SN12C renal
SNB-19 CNS = tested on: SNB-19 CNS
SNB-75 CNS = tested on: SNB-75 CNS
SW-620 colon = tested on: SW-620 colon
T-47D breast = tested on: T-47D breast
U251 CNS = tested on: U251 CNS
UACC-257 melanoma = tested on: UACC-257 melanoma
UACC-62 melanoma = tested on: UACC-62 melanoma
UO-31 renal = tested on: UO-31 renal
786-0 renal = tested on: 786-0 renal
HCT-116 colon = tested on: HCT-116 colon
M14 melanoma = tested on: M14 melanoma
MDA-MB-231 breast = tested on: MDA-MB-231 breast
TK-10 renal = tested on: TK-10 renal
HOP-62 NSCLC = tested on: HOP-62 NSCLC
SR leukemia = tested on: SR leukemia

Measured: TGI

COc1nc(-c2cn(S(=O)(=O)c3ccc(C)cc3)c3ccc(Br)cc23)cc(C(F)(F)F)c1C#N
31.3 µM: DU-145 prostate
35.2 µM: U251 CNS
42.9 µM: T-47D breast
41.8 µM: RPMI-8226 leukemia
74.2 µM: BT-549 breast
44.9 µM: NCI-H23 lung
58.8 µM: RXF 393 renal
> 100 µM: A498 renal | A549 NSCLC | ACHN renal | CAKI-1 renal | CCRF-CEM leukemia | COLO 205 colon | EKVX NSCLC | HCC-2998 colon | HCT-15 colon | HL-60(TB) leukemia | HOP-92 NSCLC | HT29 colon | IGROV1 ovarian | K-562 leukemia | KM12 colon | LOX IMVI melanoma | MALME-3M melanoma | MCF7 breast | MDA-MB-435 | MDA-N | MOLT-4 leukemia | NCI-H460 lung | NCI-H522 lung | NCI/ADR-RES ovarian | OVCAR-4 ovarian | OVCAR-5 ovarian | PC-3 prostate | SF-268 CNS | SF-295 CNS | SF-539 CNS | SK-MEL-2 melanoma | SK-MEL-28 melanoma | SK-MEL-5 melanoma | SN12C renal | SW-620 colon | UACC-257 melanoma | UACC-62 melanoma | UO-31 renal
49.4 µM: SNB-75 CNS
53.9 µM: NCI-H226 lung
59.5 µM: SK-OV-3 ovarian
35.8 µM: OVCAR-3 ovarian
64.9 µM: OVCAR-8 ovarian
62.4 µM: SNB-19 CNS

CC(C(N)=O)N(C)C(=O)c1cc2ccccc2[n+](Cc2ccccc2)c1 (centres undefined)
> 100 µM: 786-0 renal | A498 renal | A549 NSCLC | ACHN renal | BT-549 breast | CAKI-1 renal | CCRF-CEM leukemia | COLO 205 colon | DU-145 prostate | HCC-2998 colon | HCT-116 colon | HCT-15 colon | HL-60(TB) leukemia | HOP-92 NSCLC | HT29 colon | IGROV1 ovarian | K-562 leukemia | KM12 colon | M14 melanoma | MALME-3M melanoma | MCF7 breast | MDA-MB-231 breast | MDA-MB-435 | MDA-N | MOLT-4 leukemia | NCI-H226 lung | NCI-H23 lung | NCI-H460 lung | NCI-H522 lung | NCI/ADR-RES ovarian | OVCAR-3 ovarian | OVCAR-4 ovarian | OVCAR-5 ovarian | OVCAR-8 ovarian | PC-3 prostate | RPMI-8226 leukemia | RXF 393 renal | SF-268 CNS | SF-295 CNS | SF-539 CNS | SK-MEL-2 melanoma | SK-MEL-28 melanoma | SK-MEL-5 melanoma | SN12C renal | SNB-19 CNS | SNB-75 CNS | SW-620 colon | T-47D breast | TK-10 renal | U251 CNS | UACC-257 melanoma | UACC-62 melanoma | UO-31 renal

Cc1cc(S(=O)(=O)Nc2nc(N)nc(N(C)C)n2)c(S)cc1Cl
> 10 µM: 786-0 renal | A498 renal | A549 NSCLC | ACHN renal | BT-549 breast | CAKI-1 renal | CCRF-CEM leukemia | COLO 205 colon | DU-145 prostate | EKVX NSCLC | HCC-2998 colon | HCT-116 colon | HCT-15 colon | HL-60(TB) leukemia | HOP-62 NSCLC | HOP-92 NSCLC | HT29 colon | IGROV1 ovarian | K-562 leukemia | KM12 colon | LOX IMVI melanoma | M14 melanoma | MALME-3M melanoma | MCF7 breast | MDA-N | MOLT-4 leukemia | NCI-H226 lung | NCI-H23 lung | NCI-H460 lung | NCI-H522 lung | NCI/ADR-RES ovarian | OVCAR-3 ovarian | OVCAR-4 ovarian | OVCAR-5 ovarian | OVCAR-8 ovarian | PC-3 prostate | RPMI-8226 leukemia | RXF 393 renal | SF-268 CNS | SF-295 CNS | SF-539 CNS | SK-MEL-2 melanoma | SK-MEL-28 melanoma | SK-MEL-5 melanoma | SK-OV-3 ovarian | SN12C renal | SNB-19 CNS | SNB-75 CNS | SR leukemia | SW-620 colon | T-47D breast | TK-10 renal | U251 CNS | UACC-257 melanoma | UO-31 renal
